Laboratory results: the NIST ThermoML archive (doi:10.1021/acs.jced.6b00121)

Experiment: xn = mol fraction of the nth substance listed
Conditions: 100 kPa, Liquid; for mass density: Vibrating tube method; for viscosity: Falling or rolling sphere viscometry

CCCCCCCCCCC [undecane] + CCCCCO
Conditions | mass density [kg/m3] | viscosity [mPa·s]
323.15 K, x1 = 0.0999 | 778.15 | –
323.15 K, x1 = 0.2 | 766.37 | –
323.15 K, x1 = 0.3026 | 756.27 | –
323.15 K, x1 = 0.4001 | 748.09 | –
323.15 K, x1 = 0.5022 | 740.84 | –
323.15 K, x1 = 0.5976 | 734.98 | –
323.15 K, x1 = 0.6984 | 729.62 | –
323.15 K, x1 = 0.801 | 724.97 | –
323.15 K, x1 = 0.8822 | 721.69 | –
323.15 K, x1 = 1 | 718.11 | –
328.15 K, x1 = 0.0999 | 774.23 | 1.336
328.15 K, x1 = 0.2 | 762.42 | 1.142
328.15 K, x1 = 0.3026 | 752.3 | 0.989
328.15 K, x1 = 0.4001 | 744.13 | 0.895
328.15 K, x1 = 0.5022 | 736.88 | 0.828
328.15 K, x1 = 0.5976 | 731.04 | 0.776
328.15 K, x1 = 0.6984 | 725.7 | 0.742
328.15 K, x1 = 0.801 | 721.07 | 0.714
328.15 K, x1 = 0.8822 | 717.84 | 0.702
328.15 K, x1 = 1 | 714.39 | 0.692
333.15 K, x1 = 0.0999 | 770.26 | 1.2
333.15 K, x1 = 0.2 | 758.42 | 1.035
333.15 K, x1 = 0.3026 | 748.29 | 0.903
333.15 K, x1 = 0.4001 | 740.12 | 0.825
333.15 K, x1 = 0.5022 | 732.89 | 0.767
333.15 K, x1 = 0.5976 | 727.07 | 0.723
333.15 K, x1 = 0.6984 | 721.76 | 0.694
333.15 K, x1 = 0.801 | 717.15 | 0.67
333.15 K, x1 = 0.8822 | 713.96 | 0.659
333.15 K, x1 = 1 | 710.68 | 0.651
338.15 K, x1 = 0.0999 | 766.24 | 1.082
338.15 K, x1 = 0.2 | 754.37 | 0.94
338.15 K, x1 = 0.3026 | 744.23 | 0.827
338.15 K, x1 = 0.4001 | 736.07 | 0.763
338.15 K, x1 = 0.5022 | 728.86 | 0.714
338.15 K, x1 = 0.5976 | 723.06 | 0.675
338.15 K, x1 = 0.6984 | 717.77 | 0.652
338.15 K, x1 = 0.801 | 713.2 | 0.63
338.15 K, x1 = 0.8822 | 710.06 | 0.621
338.15 K, x1 = 1 | 706.95 | 0.615
343.15 K, x1 = 0.0999 | 762.15 | 0.979
343.15 K, x1 = 0.2 | 750.25 | 0.857
343.15 K, x1 = 0.3026 | 740.12 | 0.76
343.15 K, x1 = 0.4001 | 731.98 | 0.708
343.15 K, x1 = 0.5022 | 724.77 | 0.666
343.15 K, x1 = 0.5976 | 719 | 0.633
343.15 K, x1 = 0.6984 | 713.75 | 0.613
343.15 K, x1 = 0.801 | 709.22 | 0.594
343.15 K, x1 = 0.8822 | 706.13 | 0.587
343.15 K, x1 = 1 | 703.22 | 0.58
348.15 K, x1 = 0.0999 | 758.01 | 0.889
348.15 K, x1 = 0.2 | 746.09 | 0.784
348.15 K, x1 = 0.3026 | 735.95 | 0.701
348.15 K, x1 = 0.4001 | 727.83 | 0.659
348.15 K, x1 = 0.5022 | 720.65 | 0.624
348.15 K, x1 = 0.5976 | 714.91 | 0.595
348.15 K, x1 = 0.6984 | 709.7 | 0.578
348.15 K, x1 = 0.801 | 705.21 | 0.561
348.15 K, x1 = 0.8822 | 702.19 | 0.556
348.15 K, x1 = 1 | 699.47 | 0.549
353.15 K, x1 = 0.0999 | 753.8 | 0.81
353.15 K, x1 = 0.2 | 741.87 | 0.72
353.15 K, x1 = 0.3026 | 731.74 | 0.649
353.15 K, x1 = 0.4001 | 723.64 | 0.615
353.15 K, x1 = 0.5022 | 716.49 | 0.585
353.15 K, x1 = 0.5976 | 710.78 | 0.56
353.15 K, x1 = 0.6984 | 705.61 | 0.545
353.15 K, x1 = 0.801 | 701.17 | 0.531
353.15 K, x1 = 0.8822 | 698.22 | 0.528
353.15 K, x1 = 1 | 695.72 | 0.522
358.15 K, x1 = 0.0999 | 749.51 | 0.744
358.15 K, x1 = 0.2 | 737.58 | 0.663
358.15 K, x1 = 0.3026 | 727.46 | 0.602
358.15 K, x1 = 0.4001 | 719.38 | 0.577
358.15 K, x1 = 0.5022 | 712.26 | 0.551
358.15 K, x1 = 0.5976 | 706.59 | 0.528
358.15 K, x1 = 0.6984 | 701.47 | 0.517
358.15 K, x1 = 0.801 | 697.1 | 0.504
358.15 K, x1 = 0.8822 | 694.22 | 0.502
358.15 K, x1 = 1 | 691.96 | 0.497
363.15 K, x1 = 0.0999 | 745.17 | 0.68
363.15 K, x1 = 0.2 | 733.23 | 0.614
363.15 K, x1 = 0.3026 | 723.13 | 0.56
363.15 K, x1 = 0.4001 | 715.08 | 0.542
363.15 K, x1 = 0.5022 | 708 | 0.519
363.15 K, x1 = 0.5976 | 702.37 | 0.5
363.15 K, x1 = 0.6984 | 697.3 | 0.49
363.15 K, x1 = 0.801 | 692.99 | 0.48
363.15 K, x1 = 0.8822 | 690.22 | 0.48
363.15 K, x1 = 1 | 688.18 | 0.475
